Data as given in patent US9901637B2, “Vitamin D3 and analogs thereof for treating alopecia” (priority 2009, dated 2018).
Like-named read-outs stand apart in the source and are kept apart here.

Assays:
[1] = test system: HEKa cells; test: Antibody microarray (Panorama XP725) of calcitriol-treated HEKa; assay type: cell-based, human; details: calcitriol-treated (24 hour), 3-hour sample as baseline
Method: Briefly, the treated HEKa cells were first harvested and then extracted to obtain a soluble protein supernatant. […] The excess dye was removed from the protein sample, and the resulting labeled protein samples were used for microarray incubation. To determine the expression level of a particular target protein at a later time point (e.g., at hour 6 or 24) relative to that at an earlier time point (e.g., at hour 3), the samples were labeled by different labels (e.g., 3-hour extract labeled with Cy3,6-hour or 24-hour extract labeled with Cy5). […] After incubation with the microarray chip (according to manufactures recommended protocols), the chips were washed and dried. The microarrays were then scanned with a fluorescent laser scanner to measure the relative fluorescence intensity of the Cy3 and Cy5 dyes. If the amount of a particular type of target protein increased (or decreased) over time, more (or less) of the dye associated with the later time point (e.g., Cy5) will be retained by the microarray. For example, in this experiment, the earliest time point (e.g., 3-hour) was used as a baseline to determine the relative protein expression level at two later time points (e.g., 6-hour vs. 24-hour). If more Cy5 is retained by the array between 6-24 hours, the expression level of the target protein increased over the time period. […]

[2] = test system: chemotherapy-induced alopecia (CIA); details: for protection from etoposide-induced alopecia: etoposide 1.5 mg/kg daily for 3 days
Method: Specifically, Long Evans and Sprague Dawley rats with pups were purchased from Harlan Laboratories, Inc. They were housed and fed according to applicable animal handling rules and regulations. Pups were allowed to acclimate for 48 hours prior to the start of experiments. […] Rats were isolated from their littermates and mother for 6-hour periods of time. Subsequently, the treated area was cleaned with soap and water and pups were returned to their litters. On day 13, rats either received etoposide (1.5 mg/kg daily for 3 days) or cyclophosphamide (CTX) (37.5 mg/kg once) or combination cyclophosphamide (35 mg/kg once) and doxorubicin (2.5 mg/kg daily for 3 days). All chemotherapies were purchased from Sigma and were given intraperitoneally (i.p.) in a total volume of 0.1 mL. Alopecia was recorded 10 days after the last dose of chemotherapy.

[3] = test system: MCF-7 (breast cancer with p53 mutation); test: Cell growth/viability assay, calcitriol with or without chemotherapy drug; assay type: cell-based
[4] = test system: NIH-3T3 (immortalized fibroblast); test: as above; assay type: cell-based
[5] = test system: SKMEL-28 (melanoma); test: as above; assay type: cell-based
[6] = test system: MIAC51; test: Survival (cure) rate of chloroleukemic rats after two rounds of chemotherapy; assay type: in vivo, Long Evans Rats
Method: Animals were then randomized in four groups. All rats received MIAC51 as described below.
On day 5 after birth all rats received 1×105 MIAC51 intraperitoneally in 0.1 ml of serum free (SF) RPMI. MIAC51 were cultured in RPMI 1640 supplemented with L-glutamine and 10% fetal bovine serum at […] in a 5% CO2, 100% humidity incubator. Cells were grown to 50% confluency (1.5×106 ml) collected in 50 ml conical tubes, centrifuged at 600 g for 10 minutes at room temperature and resuspended in SF-RPMI at a concentration of 1×10^6/ml prior to injection.

[7] = test system: HEKa cells; test: Protective effect of calcitriol on HEKa cells against chemotherapeutic drugs; assay type: cell-based, human; details: 0.1 μg/mL calcitriol
Method: These include: erlotinib (Tarceva), an EGFR Tyr kinase inhibitor; gefutubib (Iressa), an EGFR Tyr kinase inhibitor; sorafenib, inhibitor of several Tyr kinases (Raf, VEGF-R2, c-kit, PDGR-R); Dasatinib, a BCR/ABL Tyr kinase inhibitor; and staurosporin, a relatively nonspecific kinase inhibitor.
The drug treatment period was usually three days. At the end of the three days, the background OD of the 96-well plate was read at 280 nm, before 20 μL of the “Substrate Cell Titer 96 Aqueous One Solution Reagent” (Promega) was added to each well. The plate was returned to the 37° C. incubator, and its OD at 490 nm was read each hour until an OD of approximately 1.5 was reached. The net OD increase was calculated by subtracting the pre-substrate OD reading.
The impact of the drug on the cells was calculated by comparing the OD at different concentrations in relation to the OD of the control wells (without the drug).

[8] = test system: NCI-ES-0808; test: Cell growth/viability assay, calcitriol with or without chemotherapy drug; assay type: cell-based

With `C=C1/C(=C\C=C2/CCC[C@]3(C)[C@@H]([C@H](C)CCCC(C)(C)O)CC[C@@H]23)C[C@@H](O)C[C@@H]1O` [Calcitriol, 1,25-dihydroxyvitamin D3] the “Target Proteins with Decreased (>2-fold) Protein Levels Following Calcitriol Treatment (value = protein)” value [1] was “Transforming Growth Factorb pan and WAVE and Protein Tyrosine Phosphatase PEST and CD40 and Crk II and Growth Factor Independence1 and Serine Threonine Protein and Cathepsin D”, the “dosage protective against CIA” value ([2]; neonatal rat, administered as 100 μL of 2 μg/mL topical solution) was “about 0.2 μg” and the “protection from etoposide-induced alopecia” value ([2]; neonatal rats, 0.1 μg of calcitriol topical for 6 hours daily, 6 days) was “partial localized protection”. For the same compound, the “protection from cyclophosphamide-induced alopecia” value ([2]; neonatal rats, 0.3 μg calcitriol topical, cyclophosphamide 37.5 mg/kg once) was “full body protection”, the “protection from etoposide-induced alopecia” value ([2]; neonatal rats, 0.3 calcitriol topical) was “total body protection” and the “concentrations giving calcitriol growth inhibition” value ([3]; MCF-7) was > 0.5 µg/mL. For the same compound, the “concentrations giving calcitriol growth stimulation” value ([3]; MCF-7) was 0.05 to 0.25 µg/mL, the “effect on the cytotoxic effect of Doxorubicin” value (shortened to “effect on the cytotoxic effect”) ([3]; MCF-7) was “did not appear to appreciably alter” and the “response to other drugs (doxorubucin, cisplatin, erlotinib) after calcitriol exposure” value ([3]; MCF-7, 0.1 μg/mL calcitriol for two passages) was “did not alter”. For the same compound, the “effect of calcitriol on cell growth” value [4] was “no significant growth promoting or growth inhibiting effects”, the “effect on the cytotoxic effect” value [4] was “did not appear to appreciably alter” and the “effect of calcitriol on cell growth” value ([5]; SKMEL-28) was “no significant growth promoting or growth inhibiting effects”. For the same compound, the “effect on the cytotoxic effect” value ([5]; SKMEL-28) was “did not appear to appreciably alter”, the “5-FU ED50 curve with versus without calcitriol” value ([5]; SKMEL-28, 0.1 μg/mL calcitriol) was “not significantly different” and the “interference with the cure rate” value ([6]; cyclophosphamide and doxorubicin group, cure rate in the range of 50-55%) was “did not interfere with the cure rate”. For the same compound, the “interference with the cure rate” value ([6]; cyclophosphamide group, cure rate in the range of 20-25%) was “did not interfere with the cure rate”, the “interference with the cure rate” value ([6]; cyclophosphamide, doxorubicin and cytarabine group, cure rate in the range of 75-80%) was “did not interfere with the cure rate” and the “interference with the cure rate” value ([6]; cyclophosphamide, paclitaxel and etoposide group, cure rate in the range of 78-83%) was “did not interfere with the cure rate”. The “interference with the cure rate” value ([6]; doxorubicin, paclitaxel and etoposide group, cure rate in the range of 80-83%) was “did not interfere with the cure rate”, the “protective effect against 5-FU” value [7] was “mild protective effect” and the “protective effect against Paxlitaxol (paclitaxel)” value [7] was “some protective effects”. The “protective effect against gemcitabine” value [7] was “mild protective effect”, the “protective effect against irinotecan” value [7] was “positive protective effect” and the “protective effect against tamoxifen” value [7] was “weak”. For the same compound, the “protective effect against the cytotoxic effect of doxorubicin” value [7] was “did not appear to provide a significant protective effect”, the “protection against alkylating agents cisplatin and carboplatin” value ([7]; low dosage levels) was “moderate level of protection” and the “protective effect against kinase inhibitor drugs (erlotinib, gefitinib, sorafenib, dasatinib, staurosporin)” value ([7]; low drug dosage levels) was “protected the HEKa cells”. The “effect of calcitriol on cell growth” value [8] was “no significant growth promoting or growth inhibiting effects” and the “effect on the cytotoxic effect” value [8] was “did not appear to appreciably alter”.
